The values that follow come from paper PMC5512541 (Science translational medicine, 2016).

In series [1] the test system is ISF Aβ40 and Aβ42. Briefly: In vivo microdialysis of hippocampal ISF Aβ after γ-secretase inhibitor. The following applies: APP/PS1 and APP/PS1; nExt1CKO mice, 3-4 months; LY411575 5 mg/kg intraperitoneally; hippocampal microdialysis samples every 60 min for 6 hr; ELISA. Also on record: species or system mouse.
Series [2] concerns amyloid pathology. Conditions: administration in a mouse model of AD; ref [65]; cited from earlier work.
The conditions of series [3]: human cerebrospinal fluid (CSF); endogenous Aβ; ref [8], [9]; cited from earlier work.
The conditions of series [4]: mouse interstitial fluid (ISF); endogenous Aβ; ref [8], [9]; cited from earlier work.

Read-outs that look alike come from different tables or passages of the source.

As to `C[C@H](NC(=O)[C@@H](O)c1cc(F)cc(F)c1)C(=O)N[C@@H]1C(=O)N(C)c2ccccc2-c2ccccc21` [γ-secretase inhibitor, LY411575], the “ISF Aβ40 and Aβ42 concentration after treatment” value in series [1] is recorded as “gradually decreased in a time-dependent manner”.
On to low-molecular-weight heparin, for which, in series [2], the “effect on amyloid pathology” value is “reduced amyloid pathology”.
amyloid-β [Aβ]: the results for the “half-life in the brain” value in series [3] and in series [4] were ~ 8 hours and 1 to 2 h, respectively.
